Test results as given in patent US20230302159A1, “COMPOUNDS AND COMPOSITIONS FOR TUMOR DETECTION AND SURGICAL GUIDANCE” (Cornell University, priority 2020, published 2023).
“Also recorded” adds a separate entry of the source.

System: SKOV3/GFP-Luc subcutaneous tumors
Experiment: In vivo fluorescence imaging of subcutaneous tumors by spraying, SKOV3/GFP-Luc model
Design: species or system mice
Conditions: for signal to background ratio: 2 μM
Procedure: Tumor models of subcutaneous implants and peritoneal implants. All animal procedures were carried out in compliance with the approved animal protocols and guidelines of the Institutional Animal Care and Use Committee at Weil Cornell Medical College. Mice (female, SCID Hairless Outbred Mouse) were purchased from Charles River (Wilmington, MA). To establish the subcutaneous implants, a suspension of OVASAHO/RFP-Luc cells (5.0×10^6) or SKOV3/GFP-Luc cells (5.0×10^6) in 100 μL PBS was inoculated into each flank of the female nude mice on both sides. After two weeks, the tumor implants grew to around 5 mm in size and were used for the spray experiment. To establish the peritoneal implants, SKOV3/GFP-Luc cells (5.0×10^6) suspended in […] were injected into the abdominal cavities of the female nude mice. After two weeks, the tumor growth was examined with an in vivo bioluminescence imaging system followed by peritoneal injection of D-luciferin potassium solution (200 μL, 15 mg/mL) for 10 min. Generally, mice bearing multiple disseminated peritoneal implants of 5 mm size in diameter were used for the experiment.
In vivo fluorescence imaging of subcutaneous tumors. Two subcutaneous tumor models (OVASAHO/RFP-Luc and SKOV3/GFP-Luc) were used to compare the imaging capability of CypH-11, CypH-1, and Cy7. Mice bearing the subcutaneous implants were anesthetized in an induction chamber using 2% isoflurane, and anesthesia was maintained with 1.5-2.0% isoflurane via a nose cone. Sterile surgical tools were used to remove skin around the tumor. The mice images were captured using an IVIS SpectrumCT System from PerkinElmer (Waltham, MA). OVASAHO/RFP-Luc and SKOV3/GFP-Luc tumors were captured under an RFP channel (Excitation: 520-550 nm and Emission: 570-590 nm) and a GFP channel (Excitation: 450-480 nm and Emission: 510 530 nm), respectively. A Cy7 channel (Excitation: 730-760 nm and Emission: 790-810 nm) was applied to evaluate the fluorescence generated by CypH-11, CypH-1, and Cy7. After skin removal, the tumor area and the background fluorescence under the Cy7 channel were measured first. Solutions of CypH-11, CypH-1, and Cy7 (2 μM each) were sprayed on the surgical area, and the fluorescence of the Cy7 channel was measured continuously at each time point (1, 3, 5, 7, 10, and 15 min). Ten, five, and three OVASAHO tumors were used to evaluate CypH-11, CypH-1, and Cy7, respectively. Six SKOV3 tumors were used to evaluate CypH-11. To evaluate the tumor-to-normal tissue ratio, the whole tumor regions and the adjacent open-skin areas were drawn, and their fluorescence intensity was acquired by the IVIS software. Tumor-to-normal tissue ratio value was calculated as the average fluorescence intensity of the tumor divided by that of the normal area. Also, tumor-bearing mice were euthanized by carbon dioxide inhalation or a high dose of isoflurane (5%). The subcutaneous tumors and the adjacent muscles were then extracted, and CypH-11 (2 μM) was sprayed onto them. Images were subsequently captured under GFP/RFP/Cy7 channels.
Histology. To gain knowledge about the CypH-11 distribution in tumors after administration via spray and i.p. injection, the tumors were excised and analyzed. […] The slides were imaged first with a fluorescence microscope (EVOS, Thermofisher Scientific, Waltham, MA) and were subsequently stained with hematoxylin and eosin Y solution (H&E) to assess their histologic alterations under a light microscope.

Structure (SMILES): CC(C)N(C)c1ccc(OC2=C(/C=C/C3=[N+](C(C)C)c4ccccc4C3(C)C)CCC/C2=C\C=C2\N(C(C)C)c3ccccc3C2(C)C)cc1.[I-] [CypH-11]
- signal to background ratio (1 min after spray): 1.3
- signal to background ratio (5 min after spray): 1.4
- signal to background ratio (10 min after spray): 1.6
- NIR signal depth in tumor after spray (sprayed, 15 min, histology): 2-3 layers of cells
- CypH-11 signal when sprayed ex vivo on excised 20-min old dead tissues (tumor and muscle excised, held 20 min, then sprayed): no NIR signal could be detected; also recorded: No CypH-11 signal in tumor or muscle was observed
